Measurements taken from patent publication US6723716B1, “7-acylamino-3-heteroarylthio-3-cephem carboxylic acid antibiotics and prodrugs thereof” (Essential Therapeutics, Inc., priority 1999, dated 2004).
In brackets after ≈: the same amount, converted by molar mass.

Tests used:
[1] = tested on: E. coli ATCC25992; assay: Broth microdilution MIC (NCCLS); assay type: cell-based; conditions: Escherichia coli
Protocol: (§1) Compounds were evaluated for antimicrobial activity against a panel of bacterial strains using a broth microdilution assay performed as recommended by the NCCLS (1). The minimum inhibitory concentration (MIC) was defined as the lowest concentration of drug which prevented the growth of the bacteria.
(§2) For this primary panel, the assay was performed in Mueller-Hinton Broth (MHB) with a final bacterial inoculum of 5×10^5 CFU/mL (from an early-log phase culture) and a final volume of 100 μL. Control drugs, including imipenem, vancomycin, Penicillin G, dicloxacillin (vs. MSSA ATCC29213 only), and new compounds were prepared at a concentration equivalent to 2-fold the desired final concentration. Dilution of compounds were prepared directly in the plates by serial 2-fold dilution using a multichannel pipette. Positive and negative growth control were included in each plate.
(§3) The bacterial inocula were prepared as follows. For each strain one isolated colony was used to inoculate a volume of 8 mL of Mueller-Hinton broth and these cultures were incubated overnight (20 h) at 35° C. in a shaking incubator. At the exception of Enterococcus strains, culture were then diluted 1:10 and allowed to grow for an additional one hour at 35° C. in a shaking incubator. The inocula were prepared by diluting the early log-phase (1 h) cultures 1:1000 with fresh Mueller-Hinton broth. E. faecium and E. faecalis were prepared by diluting overnight cultures 1:333 and 1:666, respectively, with fresh Mueller-Hinton broth. A volume of 50 μL of the inocula was added to each well. […] The exact inocula were determined by applying 10 μL of 10-fold serial dilution of the bacterial suspensions on TSA. After overnight incubation at 35° C., colony forming units were manually counted.
(§4) Microtiter plates were incubated during 24 h at 35° C. and were read using a microtiterplate reader (Molecular Devices) at 650 nm as well as by visual observation using a microtiterplate reading mirror.

[2] = tested on: E. faecalis ATCC 29212; assay: Broth microdilution MIC (NCCLS); assay type: cell-based; conditions: Enterococcus faecalis, ATCC29212
Protocol: as §1, §2, §3, §4

[3] = tested on: E. faecalis VanB (Van^R); assay: Broth microdilution MIC (NCCLS); assay type: cell-based; conditions: Enterococcus faecalis
Protocol: as §1, §2, §3, §4

[4] = tested on: E. faecium A491 (Amp^R); assay: Broth microdilution MIC (NCCLS); assay type: cell-based; conditions: Enterococcus faecium
Protocol: as §1, §2, §3, §4

[5] = tested on: E. faecium ATCC 35667; assay: Broth microdilution MIC (NCCLS); assay type: cell-based; conditions: Enterococcus faecium, ATCC35667
Protocol: as §1, §2, §3, §4

[6] = tested on: E. faecium VanA (Van^R); assay: Broth microdilution MIC (NCCLS); assay type: cell-based; conditions: Enterococcus faecium
Protocol: as §1, §2, §3, §4

[7] = tested on: P. aeruginosa ATCC 27853; assay: Broth microdilution MIC (NCCLS); assay type: cell-based; conditions: Pseudomonas aeruginosa, ATCC27853
Protocol: as §1, §2, §3, §4

[8] = tested on: S. aureus 76 (Meth^R)(lac^+); assay: Broth microdilution MIC (NCCLS); assay type: cell-based; conditions: Staphylococcus aureus
Protocol: as §1, §2, §3, §4

[9] = tested on: S. aureus ATCC 13709 (Meth^S); assay: Broth microdilution MIC (NCCLS); assay type: cell-based; conditions: Staphylococcus aureus, ATCC13709, S. aureus ATCC 13709 (Meth^S); read-out: MIC
Protocol: as §1, §2, §3, §4

[10] = tested on: S. aureus ATCC 29213; assay: Broth microdilution MIC (NCCLS); assay type: cell-based; conditions: Staphylococcus aureus, ATCC29213; S. aureus ATCC 29213; Mueller-Hinton broth, 24 h at 35° C.; read-out: MIC
Protocol: as §1, §2, §3, §4

[11] = tested on: S. aureus ATCC 33593 (Meth^R); assay: Broth microdilution MIC (NCCLS); assay type: cell-based; conditions: Staphylococcus aureus, ATCC33593
Protocol: as §1, §2, §3, §4

[12] = tested on: S. aureus Col (Meth^R)(lac^−); assay: Broth microdilution MIC (NCCLS); assay type: cell-based; conditions: Staphylococcus aureus
Protocol: as §1, §2, §3, §4

[13] = tested on: S. aureus Col8A (Meth^S)(lac^−); assay: Broth microdilution MIC (NCCLS); assay type: cell-based; conditions: Staphylococcus aureus
Protocol: as §1, §2, §3, §4

[14] = tested on: S. aureus PC1 (Meth^S)(lac^+); assay: Broth microdilution MIC (NCCLS); assay type: cell-based; conditions: Staphylococcus aureus
Protocol: as §1, §2, §3, §4

[15] = tested on: S. aureus Spain #356 (Meth^R); assay: Broth microdilution MIC (NCCLS); assay type: cell-based; conditions: Staphylococcus aureus, 24 h
Protocol: as §1, §2, §3, §4

[16] = tested on: S. haemolyticus 05 (Meth^R); assay: Broth microdilution MIC (NCCLS); assay type: cell-based; conditions: Staphylococcus haemolyticus
Protocol: as §1, §2, §3, §4

[17] = tested on: S. aureus ATCC29213; assay: Human serum binding effect: MIC with and without human serum; assay type: cell-based, Staphylococcus aureus; conditions: 1:1 human serum:MHB
In short: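 Serum binding was estimated as the ratio of S. aureus ATCC29213 MIC in 1:1 human serum:Mueller-Hinton broth to MIC without serum. Compounds were serially 2-fold diluted, and wells received an early-log-phase inoculum at 1×10^6 CFU/mL final. Inoculum size was checked by colony counts on TSA after overnight incubation at 35 °C.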

| Structure (SMILES) | MIC [1] [µg/mL] | MIC [2] [µg/mL] | MIC [3] [µg/mL] | MIC [4] [µg/mL] | MIC [5] [µg/mL] | MIC [6] [µg/mL] | MIC [7] [µg/mL] | MIC [8] [µg/mL] | MIC [9] [µg/mL] | MIC [10] [µg/mL] | MIC [11] [µg/mL] | MIC [12] [µg/mL] | MIC [13] [µg/mL] | MIC [14] [µg/mL] | MIC [15] [µg/mL] | MIC [16] [µg/mL] | Human serum binding effect (ratio of MIC value determined with and without human serum added) [17] |
| --- | --- | --- | --- | --- | --- | --- | --- | --- | --- | --- | --- | --- | --- | --- | --- | --- | --- |
| NCCSCc1ccncc1SC1=C(C(=O)O)N2C(=O)[C@@H](NC(=O)/C(=N\O)c3cccc(N)n3)[C@H]2SC1 [Cmpd 28, (7R)-7-[(Z)-2-(2-aminopyrid-6-yl)-2-(hydroxyimino)acetamido]-3-[4-(2-aminoethylthiomethyl)pyrid-3-ylthio]-3-cephem-4-carboxylic acid] | 32 (≈ 57 µM) | 0.5 (≈ 0.89 µM) | 2 (≈ 3.56 µM) | > 32 | 4 (≈ 7.12 µM) | 8 (≈ 14.2 µM) | > 32 | 8 (≈ 14.2 µM) | 0.13 (≈ 0.231 µM) | 0.5 (≈ 0.89 µM) | 8 (≈ 14.2 µM) | 8 (≈ 14.2 µM) | 0.25 (≈ 0.445 µM) | 0.5 (≈ 0.89 µM) | 8 (≈ 14.2 µM) | 16 (≈ 28.5 µM) |  |
| NCCSCc1nsc(SC2=C(C(=O)O)N3C(=O)[C@@H](NC(=O)/C(=N\O)c4nc(N)sc4Cl)[C@H]3SC2)n1 [Cmpd 12, (7R)-7-[(Z)-2-(2-amino-5-chlorothiazol-4-yl)-2-(hydroxyimino)acetamido]-3-[3-(2-aminoethylthiomethyl)-1,2,4-thiadiazol-5-ylthio]-3-cephem-4-carboxylic acid] | 4 (≈ 6.57 µM) |  | 0.13 (≈ 0.213 µM) | 4 (≈ 6.57 µM) | 0.5 (≈ 0.821 µM) | 1 (≈ 1.64 µM) | > 32 | 1 (≈ 1.64 µM) | 0.25 (≈ 0.41 µM) | 0.5 (≈ 0.821 µM) | 1 (≈ 1.64 µM) | 1 (≈ 1.64 µM) | 0.5 (≈ 0.821 µM) | 0.13 (≈ 0.213 µM) | 1 (≈ 1.64 µM) | 2 (≈ 3.28 µM) | 256 |
| NCCNc1nc(CSCCN)c(SC2=C(C(=O)O)N3C(=O)[C@@H](NC(=O)/C(=N\O)c4nc(N)sc4Cl)[C@H]3SC2)s1 [Cmpd 16, (7R)-7-[(Z)-2-(2-amino-5-chlorothiazol-4-yl)-2-(hydroxyimino)acetamido]-3-[4-(2-aminoethylthiomethyl)-2-aminoethylamino-1,3-thiazol-5-ylthio]-3-cephem-4-carboxylic acid] | 4 (≈ 6 µM) | 0.06 (≈ 0.0901 µM) | 0.06 (≈ 0.0901 µM) | 16 (≈ 24 µM) | 0.5 (≈ 0.75 µM) | 4 (≈ 6 µM) | 1 (≈ 1.5 µM) | 1 (≈ 1.5 µM) | 0.13 (≈ 0.195 µM) | 0.13 (≈ 0.195 µM) | 1 (≈ 1.5 µM) | 1 (≈ 1.5 µM) | 0.25 (≈ 0.375 µM) | 0.13 (≈ 0.195 µM) | 1 (≈ 1.5 µM) | 1 (≈ 1.5 µM) | 1 |
